Experimental data: patent US20190231757A1, “COMBINATION OF SPLEEN TYROSINE KINASE INHIBITORS AND OTHER THERAPEUTIC AGENTS” (Takeda Pharmaceutical Company Limited, priority 2016, published 2019)

Tests used:
[1] = system: OCI-Ly10 human lymphoma xenografts; experiment: Antitumor activity in SCID mice bearing OCI-Ly10 human lymphoma xenografts, lenalidomide combination (Example 10); assay type: in vivo, mouse; settings: alone or combined
[2] = Day 0 to Day 21; Compound A 60 mg/kg; lenalidomide 10 mg/kg; alone or combined
TMD8 DLBCL xenografts = experiment: Antitumor activity in CB17 SCID mice bearing TMD8 DLBCL xenografts, bendamustine combination (Example 3); assay type: in vivo, mouse; settings: bendamustine 1 mg/kg IV BIW, alone or combined, Day 14
Ly19 xenografts = experiment: Antitumor activity in SCID mice bearing Ly19 xenografts, bendamustine combination (Example 4); assay type: in vivo, mouse; settings: for Mean Tumor Volume (mm^3) ± SEM at Day 14 / TGI (%): Day 14; for dAUC: vs vehicle
[3] = system: OCI-Ly10 human DLBCL xenografts; experiment: Antitumor activity in SCID mice bearing OCI-Ly10 human DLBCL xenografts, ibrutinib or bendamustine combination (Example 5); assay type: in vivo, mouse; settings: Day 21, Compound A 60 mg/kg PO QD, ibrutinib 6 mg/kg PO QD, bendamustine 1 mg/kg IV BIW (6 doses), alone or combined with Compound A
[4] = system: OCI-Ly10 human lymphoma xenografts; experiment: Antitumor activity in SCID mice bearing OCI-Ly10 human lymphoma xenografts, bendamustine and rituximab (Example 6); assay type: in vivo, mouse; settings: Day 21; Compound A 30 mg/kg PO QD x21; bendamustine 1 mg/kg IV BIW; rituximab 1 mg/kg IV QW x3; alone or combined
[5] = Day 0 to Day 21; Compound A 30 mg/kg; bendamustine 1 mg/kg; rituximab 1 mg/kg; alone or combined
[6] = Body weight and tolerability, TMD8 bendamustine study (Example 3); settings: Compound A 60 mg/kg PO QD 14 d, alone or combined
[7] = Body weight and tolerability, Ly19 bendamustine study (Example 4); settings: for body weight Change (%), Day 3: Day 3 vs Day 0; for body weight Change (%), Day 7: Day 7 vs Day 0; for body weight Change (%), Day 10: Day 10 vs Day 0; for body weight Change (%), Day 14: Day 14 vs Day 0
[8] = Compound A 60 mg/kg PO QD x14, bendamustine 1.0 mg/kg IV BIW x2, alone or combined
[9] = bendamustine 2.0 mg/kg IV BIW x2, alone or with Compound A 60 mg/kg PO QD x14
[10] = Compound A 60 mg/kg, bendamustine 1.0 mg/kg, alone or combined
[11] = bendamustine 2.0 mg/kg, alone or with Compound A 60 mg/kg

Nc1cccc2c1CN(C1CCC(=O)NC1=O)C2=O (centres unmarked) [lenalidomide]
TGI ([1]; Day 21, Compound A 60 mg/kg PO QD x21, lenalidomide 10 mg/kg PO QD x21): 21.1% | ΔAUC ([1]; vs vehicle, Compound A 60 mg/kg, lenalidomide 10 mg/kg): 15.2 (p = 0.014) | Mean maximum % BWL [2]: 0%

Cn1c(CCCC(=O)O)nc2cc(N(CCCl)CCCl)ccc21 [bendamustine]
Mean Tumor Volume (mm^3) ± SEM (TMD8 DLBCL xenografts; Compound A 60 mg/kg PO QD 14 d): 1,529.2 ± 275.9 mm^3 | T/C (TMD8 DLBCL xenografts; Compound A 60 mg/kg PO QD): 0.87 | TGI (%) (TMD8 DLBCL xenografts; Compound A 60 mg/kg PO QD): 13.4% | Mean Tumor Volume (mm^3) ± SEM at Day 14 (Ly19 xenografts; [8]): 2092.9 ± 175.8 mm^3 | TGI (%) (Ly19 xenografts; [8]): 16.2% | Mean Tumor Volume (mm^3) ± SEM at Day 14 (Ly19 xenografts; [9]): 2029.8 ± 248.8 mm^3 | TGI (%) (Ly19 xenografts; [9]): 18.7% | dAUC (Ly19 xenografts; [10]): 10.9 | dAUC (Ly19 xenografts; [11]): 11.9 | TGI [3]: 43.7% | TGI ([3]; listed as Bendamustine): 43.7% | TGI [4]: 49.7% | Maximum mean % BWL [5]: 0% | % BW Change (Day Maximum) ([6]; bendamustine 1 mg/kg IV BIW 14 d, maximum change within treatment period): 13.1 (14) % | Number of animals removed ([6]; bendamustine 1 mg/kg IV BIW): 0 | animal body weight (g), Day 0 ([7]; Day 0, Compound A 60 mg/kg PO QD x14, bendamustine 1.0 mg/kg IV BIW x2, alone or combined, mean of 8): 19.7 g | animal body weight (g), Day 3 ([7]; Day 3, Compound A 60 mg/kg, bendamustine 1.0 mg/kg, alone or combined): 19.9 g | body weight Change (%), Day 3 [7, 10]: +0.9% | body weight Change (%), Day 3 [7, 11]: +2.0% | body weight Change (%), Day 7 [7, 10]: +3.7% | body weight Change (%), Day 7 [7, 11]: +3.2% | animal body weight (g), Day 10 [7, 10]: 21.2 g | animal body weight (g), Day 10 [7, 11]: 21.7 g | body weight Change (%), Day 10 [7, 10]: +7.7% | body weight Change (%), Day 10 [7, 11]: +6.2% | animal body weight (g), Day 14 [7, 10]: 22.3 g | animal body weight (g), Day 14 [7, 11]: 22.6 g | body weight Change (%), Day 14 [7, 10]: +13.1% | body weight Change (%), Day 14 [7, 11]: +10.8%
